Here are results for one compound from patent US11059878B2, “Therapeutic targeting of SET1B/compass pathway for treating cancers” (Northwestern University, priority 2016, dated 2021).

The structures appear in SMILES notation.

The conditions of data set [1]: mice treated with 50 mg/kg AdipoRon; cited from earlier work.
Data set [2] relates to SET1B. Nature of the data set: SET1B protein level by western blot after AdipoRON treatment. Type of data set: cell-based, human. The settings on record: MDA-MB-231 cells, various concentrations for 24 hours. As to the method: FIG. 13. Depletion of AdipoR1 by CRISPR-CAS9 partially rescued cell death induced by SET1B depletion. A) Design of CRIPSR-Cas9 targeting ADIPOR1 gene locus. B) PCR was performed for genotyping of AdipoR1 wildtype and deleted cells. C) Total RNA was extracted from AdipoR1-WT and AdipoR1-KO cells and subjected to RNA-seq, three replicates. Representative tracks of AdipoR1 gene are shown. D) SET1B was further knocked down in ADIPOR1-WT and ADIPOR1-KO cells, respectively. After puromycin selection for 48 hours, 1×10^5 cells were seeded in 6-well plate, the cell viability of SET1B knocked down cells was determined by cell counting. E) The cells from panel C were seeded in 6-well plate (1×10^4) and grown for one week before crystal violet staining. F) Quantification of crystal violet staining was determined as described in materials section. n=4, Student's t test was used for statistical analysis. **P<0.01; *P<0.05. Error bars represent sd. […] H) Cell morphology of GFP or GFP-AdipoR1 inducible cell lines after DMSO or Dox treatment, n=3. I) MCF7 cells were seeded in 6-well plates at the concentration of 500 cells per well. The cells were treated with either DMSO or AdipoRON (10 μM) for three weeks, and the colonies were stained with crystal violet. J) MDA-MB-231 cells were treated with various concentrations of AdipoRON for 24 hours. The protein level of SET1B was determined by western blot. […]
(Immunoblotting shows a protein as a band on a membrane.)

Data set [3] has as its system LM2 cells. In words: LM2 cell fat pad xenograft in nude mice, treatment assay. In kind it is in vivo. On the procedure:
(§1) FIG. 6. Targeting AdipoR1 signaling in human TNBC. A) MDA-MB-231, MDA-MB-468 and MCF7 cells were infected with lentiviruses inducibly expressing either GFP or GFP-ADIPOR1. After neomycin selection, the stably transfected cells were treated with DMSO or doxycycline (DOX). The induced GFP or GFP-AdipoR1 was determined by western blot in three cell lines, n=3. B) The proliferation ability of GFP or GFP-ADIPOR1 inducible cell lines were determined by cell counting, n=3, Student's t test was used for statistical analysis. **P<0.01; *P<0.05. Error bars represent sd. C) The GFP or GFP-ADIPOR1 inducible cell lines were seeded in 6-well plates at the concentration of 4×10^4 living cells per well. The cells were then treated with DMSO or doxycycline. The cell survival was shown six days after doxycycline treatment by crystal violet staining. D) Quantification of crystal violet staining was determined as described in materials section. n=4, Student's t test was used for statistical analysis. **P<0.01; *P<0.05. Error bars represent sd. E) MDA-MB-231, MDA-MB-468, and LM2 cells were seeded in 6-well plates at the concentration of 200 cells per well. […] F) Quantification of crystal violet staining was determined as described in materials section. n=4, Student's t test was used for statistical analysis. **P<0.01; *P<0.05. […] They were treated with either PBS or AdipoRon (50 mg/kg) for 10 times, and the tumor size (G) and animal survival (H) was monitored. Tumor growth was measured two weeks after inoculation (n=7). […]
FIG. 14. […] They were treated with either PBS or AdipoRon (50 mg/kg and 100 mg/kg, respectively) for 10 times, and the tumor size was monitored. Tumor growth was measured two weeks after inoculation (n=8). […]
Animal experiments. […] Tumor growth was monitored every other day two weeks after inoculation. […] They were treated with either PBS or AdipoRon (50 mg/kg) for 10 times, and the tumor size (G) and animal survival (H) was monitored. Tumor growth was measured two weeks after inoculation.

The conditions of data set [4]: cited from earlier work.
Data set [5] relates to MDA-MB-231, MDA-MB-468, and LM2 cells. In words: Colony formation of triple-negative breast cancer lines, crystal violet staining. In kind it is cell-based, human. On the procedure:
as §1, with “sd.” for “sd. E) MDA-MB-231, MDA-MB-468, and LM2 cells were seeded in 6-well plates at the concentration of 200 cells per well.”

Consider `O=C(COc1ccc(C(=O)c2ccccc2)cc1)NC1CCN(Cc2ccccc2)CC1` [AdipoRon], for which the plasma concentration in data set [1] was 11.6 µM. Also, the SET1B protein level result in data set [2] is reported as “does not affect”. In data set [3] (intraperitoneal injection, 50 mg/kg and 100 mg/kg, 10 times), the “drug effect (tumor size) by intraperitoneal injection” value is on record as “consistent result”. For the same compound, in data set [3] (oral 50 mg/kg, started 12 days after transplantation), the “tumor size / tumor growth” value is “significantly reduced”. The “animal survival / lifespan” value in data set [3] (oral 50 mg/kg, started 12 days after transplantation, 50 mg/kg) is on record as “significantly increased”. In addition, in data set [4], the toxicity in vivo result is “low toxicity”. For the same compound, in data set [5] (10 μM), the “anti-tumor effect in vitro” value is reported as “dramatic anti-tumor effect”. Moreover, the colony formation ability result in data set [5] (AdipoRON 10 μM for three weeks, multiple triple-negative breast cancer lines, 200 cells per well) was “significantly inhibited”.
